We go through one molecule from patent EP0270316A2, “Topical compositions comprising 1-substituted imidazoles and NSAIDs for treatment of acne” (PFIZER INC., priority 1986, dated 1988).

The subject of data set [1] is P. acnes. As to the kind of experiment: microbe, parasite or virus in culture. As to conditions: Cutibacterium acnes, read-out: average minimum inhibitory concentration (MIC).
The conditions of data set [2]: human skin treated with radiolabeled tioconazole; frozen section autoradiography. The text has this: This property is readily measurable by methods known to those skilled in the art such as, for example, skin layer analysis which measures the amount of radiolabeled drug, e.g. tioconazole, in human skin treated with compositions containing the drug. [[…] et al., Brit. J. Dermatol. 115, Suppl. 31, 36-40 (1986)].

SMILES strings stand for the structures. Converted amounts (≈) assume the structure as drawn.

For the molecule `Clc1ccc(C(Cn2ccnc2)OCc2ccsc2Cl)c(Cl)c1` (centres unmarked) [Tioconazole, 1-[2-[(2-chloro-3-thienyl)methoxy]-2-(2,4-dichlorophenyl)ethyl]-1H-imidazole], the MIC in data set [1] was 5 µg/mL (≈ 12.9 µM). In addition, the localization in skin result in data set [2] is listed as “localized in the sebaceous follicle”.
